# Measurements as given in publication PMC5558686 (British Journal of Cancer, 2017).
# Where a name gives a salt, the structure may show the parent alone.
# B1: TRAIL: positive control for caspase-dependent cell death (50 ng ml^−1) (protein, UniProt P50591 1-281, looked up)
# Tumor necrosis factor ligand …: MAMMEVQGGPSLGQTCVLIVIFTVLLQSLCVAVTYVYFTNELKQMQDKYSKSGIACFLKEDDSYWDPNDEESMNSPCWQVKWQLRQLVRKMILRTSEETISTVQEKQQNISPLVRERGPQRVAAHITGTRGRSNTLSSPNSKNEKALGRKINSWESSRSGHSFLSNLHLRNGELVIHEKGFYYIYSQTYFRFQEEIKENTKNDKQMVQYIYKYTSYPDPILLMKSARNSCWSKDAEYGLYSIYQGGIFELKENDRIFVSVTNEHLIDMDHEASFFGAFLVG
# How the values were obtained:
# [1] = tested on: prostate cancer; settings: phase-2; ref Clinical Trial Id: NCT00417274; cited from earlier work
# [2] = tested on: UACC 903 xenografted tumours; test: Xenografted melanoma tumour growth; type: in vivo, athymic-Foxn1−/− (nude) mice; settings: for reduction of tumour growth / tumour inhibition: oral administration, UACC 903 xenograft, day 22
# [3] = tested on: BAX-knockout HCT116 cells; test: Viability of BAX-knockout HCT116 cells; type: cell-based, human; settings: 24 h, increasing concentrations
# [4] = tested on: UACC 903, 1205 Lu and A2058 tumour development; test: Xenografted melanoma tumour growth; type: in vivo, athymic-Foxn1−/− (nude) mice; settings: for tumour weights lower than control groups: end of treatment, Figure 2E and H (UACC 903 and A2058); for decrease in tumour development: oral, perphenazine 50 mg kg^−1 or fluphenazine 25 mg kg^−1 at 4-day intervals
# [5] = Serum toxicity markers; type: in vivo, mice; settings: serum at end of oral treatment
# [6] = H&E histology of major organs; type: in vivo, mice; settings: oral treatment
# [7] = CNS related sedation, video surveillance; type: in vivo, Swiss Webster mice; settings: for onset of sedation after oral administration / persistence of sedation: xenograft mice, oral
# [8] = Body weight of treated mice; type: in vivo; settings: for loss of body weight: xenograft mice, 2 days after oral drug treatments
# [9] = tested on: UACC 903 cells; test: Western blot of autophagic flux markers LC3B and p62/SQSTM1; type: cell-based
# [10] = tested on: UACC 903 cells; test: Mitochondrial membrane potential; type: cell-based
# [11] = tested on: UACC 903 cells; test: Co-treatment with apoptosome inhibitor NS3694, viability; type: cell-based; settings: 50 μMol/l NS-3694 co-treatment
# [12] = tested on: UACC 903 cells; test: Cholesterol localisation assay; type: cell-based; settings: after 6 h
# [13] = tested on: UACC 903 cells; test: Co-treatment with necrosis inhibitors IM-54 / Necrostatin-5, viability; type: cell-based; settings: IM-54 and Necrostatin-5
# [14] = tested on: UACC 903 cells; test: Caspase-dependence, z-VAD-fmk pre-treatment, viability; type: cell-based; settings: z-VAD-fmk 20 μmol l^−1, 1 h pre-treatment; TRAIL 50 ng ml^−1
molecule,measurement,setting,value
"CCN(CC)CCCC(C)Nc1c2ccc(Cl)cc2nc2ccc(OC)cc12 (stereo not shown) [quinacrine, Mepacrine (Quinacrine) DiHCL]",patients with stabilisation or decrease in the rate of disease progression,[1],~50 % of the patients
"CNCCCN1c2ccccc2CCc2ccccc21 [Desipramine, Desipramine HCL]",reduction of tumour growth / tumour inhibition,[2],30%
OCCN1CCN(CCCN2c3ccccc3Sc3ccc(Cl)cc32)CC1 [Perphenazine],sensitivity of BAX-knockout compared with wild-type HCT116 cells,[3],more resistant
same,inhibition of UACC 903 tumour development by the free drug,"[2]; 12.5 or 25 mg kg^−1, orally every other day",ineffective
same,reduction of tumour growth / tumour inhibition,[2],60%
same,mitotic figures in H&E stained tumour sections,[2]; tumours from treated animals,significant decrease in mitotic figure numbers
same,tumour weights lower than control groups,[4],40–60%
same,decrease in tumour development,[4],40–60%
same,total bilirubin levels compared to controls,[5],significantly higher
same,histological analysis of vital organs,[6],no alteration in cell morphology or tissue architecture
same,% of time mice awake in 24 h period,[7]; 15 mg kg^−1 oral,slightly greater sedative effect compared to liposomal treatment
same,% of time mice awake in 24 h period,[7]; 50 mg kg^−1 oral,6%
same,onset of sedation after oral administration,[7],Thirty to sixty minutes
same,persistence of sedation,[7],> 24 h
same,body weight loss,"[8]; Swiss Webster mice, following treatment",10%
same,loss of body weight,[8],10%
same,LC3B and p62 protein levels (western blot),[9],dose-dependent accumulation of LC3B and p62 proteins
same,ΔΨmt − (cells that lost MMP),[10]; 6 h 10 μM,19%
same,ΔΨmt − (cells that lost MMP),[10]; 6 h 15 μM,28%
same,protection from cell death by NS-3694,[11],partially protected
OCCN1CCN(CCCN2c3ccccc3Sc3ccc(C(F)(F)F)cc32)CC1 [Fluphenazine],tumour weights lower than control groups,[4],40–60%
same,decrease in tumour development,[4],40–60%
same,onset of sedation after oral administration,[7],Thirty to sixty minutes
same,persistence of sedation,[7],> 24 h
same,loss of body weight,[8],10%
same,LC3B and p62 protein levels (western blot),[9],dose-dependent accumulation of LC3B and p62 proteins
same,protection from cell death by NS-3694,[11],partially protected
"CNCCC=C1c2ccccc2CCc2ccccc21 [Nortriptyline, Nortriptyline HCL]",reduction of tumour growth / tumour inhibition,[2],50%
same,LC3B and p62 protein levels (western blot),[9],dose-dependent accumulation of LC3B and p62 proteins
"CCN(CC)CCO[C@H]1CC[C@@]2(C)C(=CC[C@@H]3[C@@H]2CC[C@]2(C)C(=O)CC[C@@H]32)C1.Cl [U18666A, U-18666A]",intracellular cholesterol accumulation (Filipin-III staining),[12],intracellular cholesterol accumulation
"OCCN1CCN(CCC=C2c3ccccc3Sc3ccc(C(F)(F)F)cc32)CC1 [Flupentixol, Flupenthixol diHCL]",protection from cell death by NS-3694,[11],partially protected
CC(C)c1ccc2c(c1)CC[C@H]1[C@](C)(CN)CCC[C@]21C [Leelamine],intracellular cholesterol accumulation (Filipin-III staining),[12],intracellular cholesterol accumulation
same,protection from cell death by necrosis inhibitors,[13],"neither of the two necrosis inhibitors, IM-54 and Necrostatin-5, protected"
B1,effect of pan-caspase inhibitor z-VAD-fmk on cell death,[14],protected cells from apoptosis
